{"source": "patent US20230255904A1", "about": "“PHARMACEUTICAL COMPOSITION FOR PREVENTING OR TREATING CANCER COMPRISING NAPHTHOQUINONE-BASED COMPOUND AND IMMUNE CHECKPOINT INHIBITOR AS ACTIVE INGREDIENTS” (NADIANBIO LTD., priority 2020, published 2023)", "key": {"EMT6": {"test_system": "EMT6", "assay": "Tumor growth inhibition, animal model for breast cancer II (EMT6)", "type": "in vivo, BALB/c mice", "settings": "Experimental Example 14, Dunnione 40 mg/kg oral every day from 11th day, Anti-CTLA4 antibody 200 μg/head i.p. 2 times a week from 11th day, Lapatinib 100 mg/kg oral every day from 11th day", "protocol": "(§1) All mice used in the experiments were raised in a sterile animal room with constant temperature (22° C. to 26° C.) and constant humidity (55% to 60%), acclimatized for 1 week while sufficiently supplying typical solid feed (Samtako Inc., Korea) and water, and then used. All experiments were conducted after obtaining approval from the Institutional Animal Care and Use Committee in accordance with the laboratory animal care and ethics regulations of the Institutional Animal Care and Use Committee of Wonkwang University.\n(§2) 7-week-old BALB/c or C57BL/6 mice were used, and subcutaneously inoculated using a 1-mL insulin syringe within 30 minutes after mixing the mouse cancer cells with 0.2 mL of PBS.\n(§3) After the cancer cell line was subcutaneously implanted, the administration of drugs was started when the size of the cancer reached 50 to 100 mm^3. The volumes (mm^3) of the tumors, which were generated after the inoculation, were measured at intervals of 3 days using a caliper, calculation was performed using the formula of […], and then the results thereof were compared. […]"}, "Hepa1-6": {"test_system": "Hepa1-6", "assay": "Tumor growth inhibition, animal model for liver cancer (Hepa1-6)", "type": "in vivo, C57BL/6 mice", "settings": "Dunnione 40 mg/kg oral every day from 11th day, Anti-CTLA4 antibody 200 μg/head i.p. 2 times a week from 11th day", "protocol": "as §1, §2, §3"}, "LL/2": {"test_system": "LL/2", "assay": "Tumor growth inhibition, animal model for lung cancer II (LL/2)", "type": "in vivo, C57BL/6 mice", "settings": "Experimental Example 31; LL/2 lung cancer II; dunnione 40 mg/kg oral daily from 6th day; anti-PD-1 antibody 100 μg/head, carboplatin 25 mg/kg + pemetrexed 100 mg/kg intraperitoneal 2 times a week, 3 times in total", "protocol": "as §1, §2, §3"}, "4T1-Luc": {"test_system": "4T1-Luc", "assay": "Tumor metastasis analysis, photon emission amount after tumor resection (4T1-Luc)", "type": "in vivo, BALB/c mice", "settings": "Experimental Example 32; 17th day after primary tumor removal; dunnione 40 mg/kg oral daily; anti-CTLA4 antibody 200 μg/head intraperitoneal at intervals of 3 days; mitoxantrone 6 mg/kg intraperitoneal once on 1st day", "protocol": "4T1-Luc (2.5×10^6 cells) as a mouse breast cancer cell line overexpressing a luciferase was implanted into mammary fat pads of BALB/c mice, and the tumor was removed through surgical resection when the size of the cancer reached 150 to 200 mm^3. The administration of drugs was started from the day after the tumor removal procedure, and the degree of cancer metastasis was measured by measuring the photon emission amount at intervals of 1 week from the 3rd day after the tumor removal procedure.\nAfter sole administration or co-administration of respective drugs was performed according to the administration schedule listed in Table 35 below, the photon emission amount (fold) was measured on the 17th day according to the tumor metastasis assessment method described in Example 2.1, and the results thereof are shown in Table 35 and FIG. 32."}, "MC38": {"test_system": "MC38", "assay": "Survival rate analysis, animal model for colorectal cancer I (MC38)", "type": "in vivo, C57BL/6 mice", "protocol": "After subcutaneous implantation of the cancer cell line, the survival rate was measured by recording the number of mice that died in each group every day. The measurement of survival rate was performed until the death of all mice in all groups or the death of all mice in the control. The average survival day was calculated by obtaining a survival curve using the survival rate.\nAfter sole administration or co-administration of respective drugs was performed according to the administration schedules listed in Tables 36 and 37 below, the survival rates and the average survival days were calculated according to the survival rate analysis method described in Example 3.1, and the results thereof are respectively shown in Tables 36 and 37 and FIGS. 33 and 34."}, "[1]": {"settings": "Experimental Example 34, dunnione 40 mg/kg oral daily from 6th day, anti-PD-1 antibody 200 μg/head intraperitoneal 2 times a week from 6th to 62nd day, 5-fluorouracil 50 mg/kg intraperitoneal once on 6th day"}}}
{"smiles": "CC1OC2=C(C(=O)C(=O)c3ccccc32)C1(C)C", "note": "(centres unmarked) [Dunnione, 2,3,3-trimethyl-2H-benzo[g][1]benzofuran-4,5-dione]", "values": [{"measurement": "TGI (%)", "setting": "EMT6", "value": 9.7, "unit": "%"}, {"measurement": "TGI (%)", "setting": "Hepa1-6; Experimental Example 28, 4 times, Sorafenib 10 mg/kg oral every day from 11th day", "value": 29.1, "unit": "%"}, {"measurement": "TGI (%)", "setting": "Hepa1-6; Experimental Example 29, 3 times, Everolimus 1 mg/kg oral every day from 11th day", "value": 22.4, "unit": "%"}, {"measurement": "TGI (%)", "setting": "LL/2", "value": 23.5, "unit": "%"}, {"measurement": "Photon emission amount", "setting": "4T1-Luc", "value": "2805.3 ± 2352.3", "unit": "fold"}, {"measurement": "Survival rate (%) on 38th day after cancer implantation", "setting": "MC38; Experimental Example 33, dunnione 40 mg/kg oral daily from 4th day, anti-PD-1 antibody 100 μg/head + anti-CTLA4 antibody 100 μg/head intraperitoneal, oxaliplatin 6 mg/kg + 5-fluorouracil 50 mg/kg intraperitoneal at intervals of 15 days, 3 times", "value": 10, "unit": "%"}, {"measurement": "Average survival day", "setting": "MC38; [1]", "value": 28, "unit": "days"}, {"measurement": "Total survival period", "setting": "MC38; [1]", "value": "22 to 45"}]}
